Results taken from patent US10035801B2, “Pyrazolo compounds and uses thereof” (CONSTELLATION PHARMACEUTICALS, INC., priority 2013, dated 2018).

Molecular target: T1, KDM5A (Homo sapiens, UniProt P29375)
T1 construct: Full length KDM5A enzyme was expressed and purified inhouse; made in house
Experiment: KDM5 enzyme assay, KDM5A HTRF (Example 463)
Format: biochemical
Settings: not given

T1 sequence (P29375 whole entry): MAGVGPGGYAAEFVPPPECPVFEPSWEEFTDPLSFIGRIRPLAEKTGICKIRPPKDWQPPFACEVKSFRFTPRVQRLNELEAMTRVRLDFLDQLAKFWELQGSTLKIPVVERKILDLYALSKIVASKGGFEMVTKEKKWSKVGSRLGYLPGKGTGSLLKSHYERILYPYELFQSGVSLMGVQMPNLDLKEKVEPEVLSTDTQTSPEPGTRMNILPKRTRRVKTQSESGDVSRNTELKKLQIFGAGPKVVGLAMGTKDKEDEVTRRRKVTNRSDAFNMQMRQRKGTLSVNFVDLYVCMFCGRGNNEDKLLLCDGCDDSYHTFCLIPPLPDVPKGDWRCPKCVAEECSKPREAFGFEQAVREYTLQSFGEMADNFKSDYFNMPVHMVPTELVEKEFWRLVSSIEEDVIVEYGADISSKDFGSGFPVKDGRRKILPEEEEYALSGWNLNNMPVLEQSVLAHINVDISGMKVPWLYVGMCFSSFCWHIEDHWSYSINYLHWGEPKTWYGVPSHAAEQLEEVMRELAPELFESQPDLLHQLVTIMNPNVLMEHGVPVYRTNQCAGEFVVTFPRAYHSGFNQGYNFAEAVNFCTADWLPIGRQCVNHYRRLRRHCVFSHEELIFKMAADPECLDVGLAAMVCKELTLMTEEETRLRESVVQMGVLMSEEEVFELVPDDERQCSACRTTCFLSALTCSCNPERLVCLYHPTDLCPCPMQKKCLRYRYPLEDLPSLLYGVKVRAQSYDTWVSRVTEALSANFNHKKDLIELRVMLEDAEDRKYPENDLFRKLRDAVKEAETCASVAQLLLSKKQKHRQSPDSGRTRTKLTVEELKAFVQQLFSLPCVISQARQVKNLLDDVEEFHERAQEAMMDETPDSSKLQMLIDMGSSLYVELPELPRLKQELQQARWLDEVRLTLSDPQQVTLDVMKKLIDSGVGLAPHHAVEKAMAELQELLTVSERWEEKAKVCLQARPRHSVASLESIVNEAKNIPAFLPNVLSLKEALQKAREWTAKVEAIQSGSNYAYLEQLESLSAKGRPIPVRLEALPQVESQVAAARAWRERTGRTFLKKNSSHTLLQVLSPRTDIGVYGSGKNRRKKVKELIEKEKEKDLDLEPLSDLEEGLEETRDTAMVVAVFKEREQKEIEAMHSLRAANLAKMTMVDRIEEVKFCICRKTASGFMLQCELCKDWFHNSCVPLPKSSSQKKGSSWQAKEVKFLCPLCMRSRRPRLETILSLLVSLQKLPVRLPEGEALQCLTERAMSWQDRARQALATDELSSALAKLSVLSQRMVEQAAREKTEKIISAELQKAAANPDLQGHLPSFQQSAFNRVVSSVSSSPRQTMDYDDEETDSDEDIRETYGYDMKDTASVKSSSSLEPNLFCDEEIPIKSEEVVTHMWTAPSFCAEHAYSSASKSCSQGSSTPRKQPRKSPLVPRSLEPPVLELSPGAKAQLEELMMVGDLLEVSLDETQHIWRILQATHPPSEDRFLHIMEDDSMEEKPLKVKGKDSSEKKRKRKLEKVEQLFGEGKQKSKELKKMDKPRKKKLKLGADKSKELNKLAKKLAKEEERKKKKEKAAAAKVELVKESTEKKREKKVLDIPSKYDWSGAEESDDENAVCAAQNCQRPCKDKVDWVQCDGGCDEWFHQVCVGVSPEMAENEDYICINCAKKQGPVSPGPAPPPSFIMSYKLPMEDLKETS

Compound `N#Cc1cnn2c(=O)c(Br)c(-c3ccccc3)[nH]c12` [Example 45, 6-Bromo-7-oxo-5-phenyl-4,7-dihydropyrazolo[1,5-a]pyrimidine-3-carbonitrile] has an IC50 of 30 nM.

Same assay, conditions: compounds of Examples 1-432; read-out: Example 463 Assay KDM5A HTRF IC50

Compared with `CC(C)c1c(-c2cnn(-c3ccncc3)c2)[nH]c2c(C#N)cnn2c1=O` [Example 11, 6-Isopropyl-7-oxo-5-(1-(pyridin-4-yl)-1H-pyrazol-4-yl)-4,7-dihydropyrazolo[1,5-a]pyrimidine-3-carbonitrile], `CC(C)c1c(-c2cnn(-c3ccccc3)c2)[nH]c2c(C#N)cnn2c1=O` [Example 54] is 2.3-fold lower in IC50: 14 nM for the first, 6 nM for the second. The second is the more potent here.

Compared with `CC(C)c1c(-c2cnn(-c3ccccn3)c2)[nH]c2c(C#N)cnn2c1=O` [Example 12, 6-Isopropyl-7-oxo-5-(1-(pyridin-2-yl)-1H-pyrazol-4-yl)-4,7-dihydropyrazolo[1,5-a]pyrimidine-3-carbonitrile], `CCn1cc(-c2[nH]c3c(C#N)cnn3c(=O)c2C(C)C)cn1` [Example 55] is 1.6-fold lower in IC50: 18 nM for the first, 11 nM for the second. The second is the more potent here.

`CNC(=O)C(C)(C)n1cc(-c2[nH]c3c(C#N)cnn3c(=O)c2C(C)C)cn1` [Example 13, 2-(4-(3-Cyano-6-isopropyl-7-oxo-4,7-dihydropyrazolo[1,5-a]pyrimidin-5-yl)-1H-pyrazol-1-yl)-N,2-dimethylpropanamide] and `CC(C)c1c(-c2cnn(C(C)C)c2)[nH]c2c(C#N)cnn2c1=O` [Example 60] are within 1.5-fold of each other in IC50: 23 nM for the first, 19 nM for the second.

Going from `CC(C)c1c(-c2cnn(C(C)C)c2F)[nH]c2c(C#N)cnn2c1=O` [Example 14, 5-(5-Fluoro-1-isopropyl-1H-pyrazol-4-yl)-6-isopropyl-7-oxo-4,7-dihydropyrazolo[1,5-a]pyrimidine-3-carbonitrile] to `Cc1occc1-c1[nH]c2c(C#N)cnn2c(=O)c1C(C)C` [Example 53], the IC50 rises from 5.3 nM to 17 nM (3.2-fold). The first is the more potent here.

Going from `CC(C)c1c(-c2cnn(C3CCSCC3)c2)[nH]c2c(C#N)cnn2c1=O` [Example 17, 6-isopropyl-7-oxo-5-(1-(tetrahydro-2H-thiopyran-4-yl)-1H-pyrazol-4-yl)-4,7-dihydropyrazolo[1,5-a]pyrimidine-3-carbonitrile] to `CC(C)c1c(-c2cnn(C3CCS(=O)(=O)CC3)c2)[nH]c2c(C#N)cnn2c1=O` [Example 18, 5-(1-(1,1-Dioxidotetrahydro-2H-thiopyran-4-yl)-1H-pyrazol-4-yl)-6-isopropyl-7-oxo-4,7-dihydropyrazolo[1,5-a]pyrimidine-3-carbonitrile], the IC50 falls from 41 nM to 21 nM (2-fold).

First: CC(=O)/C=C/c1cccc(Cn2cc(-c3[nH]c4c(C#N)cnn4c(=O)c3C(C)C)cn2)n1 [Example 19, (E)-6-isopropyl-7-oxo-5-(1-((6-(3-oxobut-1-en-1-yl)pyridin-2-yl)methyl)-1H-pyrazol-4-yl)-4,7-dihydropyrazolo[1,5-a]pyrimidine-3-carbonitrile]
Second: CC(C)c1c(-c2ccc(=O)n(C)c2)[nH]c2c(C#N)cnn2c1=O [Example 56]
The IC50 of the first is 3.4-fold higher: 55 nM for the first, 16 nM for the second.

`CCc1c[nH]c2c(C#N)cnn2c1=O` [Example 20, 6-Ethyl-7-oxo-4,7-dihydropyrazolo[1,5-a]pyrimidine-3-carbonitrile] and `CC(C)(C)c1c[nH]c2c(C#N)cnn2c1=O` [Example 21, 6-(tert-Butyl)-7-oxo-4,7-dihydropyrazolo[1,5-a]pyrimidine-3-carbonitrile] are within 1.5-fold of each other in IC50: 37 nM for the first, 38 nM for the second.

Going from `CC(C)c1c(CCc2ccccc2)[nH]c2c(C#N)cnn2c1=O` [Example 23, 6-isopropyl-7-oxo-5-phenethyl-4,7-dihydropyrazolo[1,5-a]pyrimidine-3-carbonitrile] to `CC(C)c1c(Nc2ccccc2)[nH]c2c(C#N)cnn2c1=O` [Example 47, 6-isopropyl-7-oxo-5-(phenylamino)-4,7-dihydropyrazolo[1,5-a]pyrimidine-3-carbonitrile], the IC50 rises from 9.8 nM to 24 nM (2.4-fold).

`CCc1c(-c2cccc(I)c2)[nH]c2c(C#N)cnn2c1=O` [Example 24, 6-ethyl-5-(3-iodophenyl)-7-oxo-4,7-dihydropyrazolo[1,5-a]pyrimidine-3-carbonitrile] and `CCc1c(-c2cccc(-c3ccccc3)c2)[nH]c2c(C#N)cnn2c1=O` [Example 40, 5-([1,1′-Biphenyl]-3-yl)-6-ethyl-7-oxo-4,7-dihydropyrazolo[1,5-a]pyrimidine-3-carbonitrile] are within 1.5-fold of each other in IC50: 7 nM for the first, 10 nM for the second.

Going from `CCc1c(C(=O)O)[nH]c2c(C#N)cnn2c1=O` [Example 25, 3-cyano-6-ethyl-7-oxo-4,7-dihydropyrazolo[1,5-a]pyrimidine-5-carb oxylic acid] to `CCc1c(C(=O)NCC(=O)c2ccccc2)[nH]c2c(C#N)cnn2c1=O` [Example 31, 3-cyano-6-ethyl-7-oxo-N-(2-oxo-2-phenylethyl)-4,7-dihydropyrazolo[1,5-a]pyrimidine-5-carboxamide], the IC50 falls from 220 nM to 25 nM (8.8-fold).

`CCc1c(C(N)=O)n(C)c2c(C#N)cnn2c1=O` [Example 26, 3-cyano-6-ethyl-4-methyl-7-oxo-4,7-dihydropyrazolo[1,5-a]pyrimidine-5-carboxamide] and `CCc1c(C(=O)NC)n(C)c2c(C#N)cnn2c1=O` [Example 27, 3-cyano-6-ethyl-N,4-dimethyl-7-oxo-4,7-dihydropyrazolo[1,5-a]pyrimidine-5-carboxamide] are within 1.5-fold of each other in IC50: 4400 nM for the first, 3900 nM for the second.

`CCc1c(-c2nc(C)no2)[nH]c2c(C#N)cnn2c1=O` [Example 28, 6-ethyl-5-(3-methyl-1,2,4-oxadiazol-5-yl)-7-oxo-4H-pyrazolo[1,5-a]pyrimidine-3-carbonitrile] and `CCc1c(-c2nnc(C)o2)[nH]c2c(C#N)cnn2c1=O` [Example 29, 6-ethyl-5-(5-methyl-1,3,4-oxadiazol-2-yl)-7-oxo-4,7-dihydropyrazolo[1,5-a]pyrimidine-3-carbonitrile] are within 1.5-fold of each other in IC50: 18 nM for the first, 16 nM for the second.

First: CCc1c(-c2ncc[nH]2)[nH]c2c(C#N)cnn2c1=O [Example 30, 6-ethyl-5-(1H-imidazol-2-yl)-7-oxo-4,7-dihydropyrazolo[1,5-a]pyrimidine-3-carbonitrile]
Second: CCc1c(-c2ccco2)[nH]c2c(C#N)cnn2c1=O [Example 57]
The IC50 of the first is 2.1-fold higher: 12 nM for the first, 5.7 nM for the second. The second is the more potent here.

Compared with `CCc1c(-c2ncc(-c3ccccc3)o2)[nH]c2c(C#N)cnn2c1=O` [Example 32, 6-ethyl-7-oxo-5-(5-phenyloxazol-2-yl)-4,7-dihydropyrazolo[1,5-a]pyrimidine-3-carbonitrile], `C#CCc1c(-c2ccccc2)[nH]c2c(C#N)cnn2c1=O` [Example 37, 7-Oxo-5-phenyl-6-(prop-2-yn-1-yl)-4,7-dihydropyrazolo[1,5-a]pyrimidine-3-carbonitrile] is 1.6-fold higher in IC50: 15 nM for the first, 24 nM for the second. The first is the more potent here.

Going from `N#Cc1cnn2c(=O)c(CC(F)F)c(-c3ccccc3)[nH]c12` [Example 33, 6-(2,2-Difluoroethyl)-7-oxo-5-phenyl-4H-pyrazolo[1,5-a]pyrimidine-3-carbonitrile] to `CC(c1c(-c2ccccc2)[nH]c2c(C#N)cnn2c1=O)C1CC1` (centres unmarked) [Example 39, 6-(1-cyclopropylethyl)-7-oxo-5-phenyl-4H-pyrazolo[1,5-a]pyrimidine-3-carbonitrile], the IC50 rises from 9.3 nM to 128 nM (14-fold).

Compared with `N#Cc1cnn2c(=O)c(C3CCC3)c(-c3ccccc3)[nH]c12` [Example 34, 6-Cyclobutyl-7-oxo-5-phenyl-4H-pyrazolo[1,5-a]pyrimidine-3-carbonitrile], `N#Cc1cnn2c(=O)c(C3CCC3)c(-c3cn[nH]c3)[nH]c12` [Example 35, 6-Cyclobutyl-7-oxo-5-(1H-pyrazol-4-yl)-4H-pyrazolo[1,5-a]pyrimidine-3-carbonitrile] is 3.2-fold higher in IC50: 9.5 nM for the first, 30 nM for the second.

Compared with `N#Cc1cnn2c(=O)c(C3CCC3)c(-c3cnn(C4CCCCC4)c3)[nH]c12` [Example 36, 6-Cyclobutyl-5-(1-cyclohexylpyrazol-4-yl)-7-oxo-4H-pyrazolo[1,5-a]pyrimidine-3-carbonitrile], `C#CC(C)c1c(-c2cnn(C(C)C)c2)[nH]c2c(C#N)cnn2c1=O` (centres unmarked) [Example 38, 5-(1-isopropylpyrazol-4-yl)-6-(1-methylprop-2-ynyl)-7-oxo-4H-pyrazolo[1,5-a]pyrimidine-3-carbonitrile] is 3.5-fold higher in IC50: 10.4 nM for the first, 36 nM for the second.

Going from `CCc1c(-c2cccc(Nc3ccc(F)cc3)c2)[nH]c2c(C#N)cnn2c1=O` [Example 41, 6-Ethyl-5-(3-((4-fluorophenyl)amino)phenyl)-7-oxo-4,7-dihydropyrazolo[1,5-a]pyrimidine-3-carbonitrile] to `CC(C)c1c(-c2ccc(-c3ccccc3)o2)[nH]c2c(C#N)cnn2c1=O` [Example 59], the IC50 rises from 19 nM to 34 nM (1.8-fold). The first is the more potent here.

`CC(C)c1c(-c2cccc(N3CCCC3=O)c2)[nH]c2c(C#N)cnn2c1=O` [Example 42, 6-isopropyl-7-oxo-5-(3-(2-oxopyrrolidin-1-yl)phenyl)-4,7-dihydropyrazolo[1,5-a]pyrimidine-3-carbonitrile] and `CC(C)c1c(-c2coc3ccccc23)[nH]c2c(C#N)cnn2c1=O` [Example 50] are within 1.5-fold of each other in IC50: 21 nM for the first, 20 nM for the second.

First: N#Cc1cnn2c(=O)cc(-c3cc(N)cc(-c4ccccc4)c3)[nH]c12 [Example 43, 5-(3-amino-5-phenyl-phenyl)-7-oxo-4H-pyrazolo[1,5-a]pyrimidine-3-carbonitrile]
Second: CC(=O)Nc1cc(-c2ccccc2)cc(-c2cc(=O)n3ncc(C#N)c3[nH]2)c1 [Example 44, N-[3-(3-Cyano-7-oxo-4H-pyrazolo[1,5-a]pyrimidin-5-yl)-5-phenyl-phenyl]acetamide]
The IC50 of the first is 4.4-fold lower: 83 nM for the first, 368 nM for the second. The first is the more potent here.

Compared with `Cc1[nH]c2c(C#N)cnn2c(=O)c1-c1ccco1` [Example 46, 6-(2-Furyl)-5-methyl-7-oxo-4H-pyrazolo[1,5-a]pyrimidine-3-carbonitrile], `CC(C)c1c(Oc2ccccc2)[nH]c2c(C#N)cnn2c1=O` [Example 49, 6-isopropyl-7-oxo-5-phenoxy-4,7-dihydropyrazolo[1,5-a]pyrimidine-3-carbonitrile] is 120-fold lower in IC50: 2900 nM for the first, 25 nM for the second. The second is the more potent here.

First: CC(C)c1c(N2CCCCC2)[nH]c2c(C#N)cnn2c1=O [Example 48, 6-isopropyl-7-oxo-5-(piperidin-1-yl)-4,7-dihydropyrazolo[1,5-a]pyrimidine-3-carbonitrile]
Second: CC(C)c1c(-c2cc(C3CC3)co2)[nH]c2c(C#N)cnn2c1=O [Example 58]
The IC50 of the first is 12-fold higher: 84 nM for the first, 7.3 nM for the second.

`CC(C)c1c(-c2ccn(-c3ccccc3)n2)[nH]c2c(C#N)cnn2c1=O` [Example 51] and `CC(C)c1c(-c2ccc(C3CC3)o2)[nH]c2c(C#N)cnn2c1=O` [Example 52] are within 1.5-fold of each other in IC50: 8.3 nM for the first, 5.8 nM for the second.
